This is an account of results in article PMC7307906, “Macrocyclic Modalities Combining Peptide Epitopes and Natural Product Fragments” (Journal of the American Chemical Society, 2020).

Values joined by “and” are separate entries in the source; they are usually repeats but may differ in a detail not shown here. Equal entries are not always repeated. Where two headings read alike, the source gives them in different places.

[1] abbreviates: the molecule shown is the open-chain precursor, other bond, 34-membered ring, CH(OMe)3/Et3N, then 6/LiBr/Et3N, DMF, THF, resin, 25.0 °C, with chain assembly.
The mark [2] stands for this setting: the molecule shown is the open-chain precursor, other bond, 28-membered ring, CH(OMe)3/Et3N, then 6/LiBr/Et3N, DMF, THF, resin, 25.0 °C, with chain assembly.
Setting [3] is: the molecule shown is the open-chain precursor, other bond, 37-membered ring, CH(OMe)3/Et3N, then 6/LiBr/Et3N, DMF, THF, resin, 25.0 °C, with chain assembly.
Where [4] appears, read: the molecule shown is the open-chain precursor, other bond, 31-membered ring, CH(OMe)3/Et3N, then 7/LiBr/Et3N, DMF, THF, resin, 25.0 °C, with chain assembly.
[5] abbreviates: the molecule shown is the open-chain precursor, other bond, 31-membered ring, CH(OMe)3/Et3N, then 6/LiBr/Et3N, DMF, THF, resin, 25.0 °C, with chain assembly.
The mark [6] stands for this setting: other bond, Fmoc removal, intramolecular imine, N-methylmaleimide 1,3-dipolar cycloaddition, resin, 4 steps.
The mark [7] stands for this setting: other bond, N-methylmaleimide (RP-04; imine cyclization/1,3-dipolar cycloaddition), resin, 4 steps.
The mark [8] stands for this setting: other bond, Fmoc removal (RP-03), imine cyclization/1,3-dipolar cycloaddition, N-methylmaleimide (RP-04), resin, 4 steps.
The mark [9] stands for this setting: other bond, Fmoc removal (RP-03), imine cyclization/N-methylmaleimide 1,3-dipolar cycloaddition (RP-04), resin, 3 steps.
Setting [10] is: other bond, 34-membered ring, imine formation, then N-methylmaleimide cycloaddition (RP-04), resin, 4 steps.

Take “H-Gly-MePhe-Ala-His-Ala-Ser-Asn-Lys(4-formylbenzoyl)-Gly-resin?”: the ring closure, yield after HPLC under setting [1] stood at 3%.

With “H-Gly-MePhe-Arg-Ala-Asn-Lys(4-formylbenzoyl)-Gly-resin?”, under setting [2], the ring closure, yield after HPLC was found to be 14%. Turning to “H-Gly-MePhe-Arg-Phe-Phe-Asn-Ala-Lys(4-formylbenzoyl)-Tyr-resin?”, the ring closure, yield after HPLC was 3% under setting [1] and 2% (the molecule shown is the open-chain precursor, other bond, 34-membered ring, CH(OMe)3/Et3N, then 7/LiBr/Et3N, DMF, THF, resin, 25.0 °C, with chain assembly). On to “H-Gly-MePhe-Arg-Phe-Phe-Asn-Ala-Phe-Lys(4-formylbenzoyl)-Gly-resin?”, for which the ring closure, yield after HPLC runs as follows: under setting [3], 2%; (the molecule shown is the open-chain precursor, other bond, 37-membered ring, CH(OMe)3/Et3N, then 7/LiBr/Et3N, DMF, THF, resin, 25.0 °C, with chain assembly) 1%. In the case of “H-Gly-MePhe-Arg-Phe-Phe-Asn-Ala-Phe-Lys(4-formylbenzoyl)-Tyr-resin?”, under setting [3], the ring closure, yield after HPLC was 2%. Consider “H-Gly-MePhe-Arg-Phe-Phe-Asn-Lys(4-formylbenzoyl)-Gly-resin?”, for which the ring closure, yield after HPLC under setting [4] turned out to be 6%. Under setting [5], “H-Gly-MePhe-Arg-Phe-Phe-Asn-Lys(4-formylbenzoyl)-Tyr-resin?” gave a ring closure, yield after HPLC of 3%. In the case of “H-Gly-MePhe-Arg-dPhe-dPhe-Asn-Ala-Lys(4-formylbenzoyl)-Gly-resin?”, the ring closure, yield after HPLC (the molecule shown is the open-chain precursor, other bond, 34-membered ring, CH(OMe)3/Et3N, then 11/LiBr/Et3N, DMF, THF, resin, 25.0 °C, with chain assembly) was found to be 5%. Under setting [1], “H-Gly-MePhe-Arg-dPhe-dPhe-Asn-Ala-Lys(4-formylbenzoyl)-Tyr-resin?” gave a ring closure, yield after HPLC of 2%.

In the case of “H-Gly-MePhe-Arg-dPhe-dPhe-Asn-Ala-Phe-Lys(4-formylbenzoyl)-Gly-resin?”, the ring closure, yield after HPLC under setting [3] worked out at 4%. With “H-Gly-MePhe-Arg-dPhe-dPhe-Asn-Ala-Phe-Lys(4-formylbenzoyl)-Tyr-resin?”, the ring closure, yield after HPLC worked out at 2% under setting [3] and 1% (the molecule shown is the open-chain precursor, other bond, 37-membered ring, CH(OMe)3/Et3N, then 11/LiBr/Et3N, DMF, THF, resin, 25.0 °C, with chain assembly). Take “H-Gly-MePhe-Arg-dPhe-dPhe-Asn-Lys(4-formylbenzoyl)-Gly-resin?”: the ring closure, yield after HPLC under setting [5] worked out at 2%; the ring closure, yield after HPLC under setting [4] came out at 1%; the ring closure, yield after HPLC (the molecule shown is the open-chain precursor, other bond, 31-membered ring, CH(OMe)3/Et3N, then 8/LiBr/Et3N, DMF, THF, resin, 25.0 °C, with chain assembly) worked out at 4%. In the case of “H-Gly-MePhe-Arg-dPhe-dPhe-Asn-Lys(4-formylbenzoyl)-Tyr-resin?”, under setting [4], the ring closure, yield after HPLC came out at 3%. Under setting [2], “H-Gly-MePhe-Asn-Asn-Asn-Lys(4-formylbenzoyl)-Gly-resin?” returned a ring closure, yield after HPLC of 12%. Consider “H-Gly-MePhe-Asp-Ile-Asn-Asn-Asn-Lys(4-formylbenzoyl)-Gly-resin”, for which the ring closure, yield after HPLC (the molecule shown is the open-chain precursor, other bond, 34-membered ring, CH(OMe)3/Et3N, then 12/LiBr/Et3N, DMF, THF, resin, 25.0 °C, with chain assembly) was found to be 3%. Under “the molecule shown is the open-chain precursor, other bond, 34-membered ring, imine formation, then 5-benzylidene-1,3-dimethylbarbiturate (14) cycloaddition (RP-04), resin, 4 steps”, “H-Gly-MePhe-Asp-Ile-Asn-Asn-Asn-Lys(4-formylbenzoyl)-Gly-resin?” returned a ring closure, yield after HPLC of 11%. For the substance “H-Gly-MePhe-Asp-Ile-Asn-Asn-Asn-Val-Lys(4-formylbenzoyl)-Gly-resin?”, the ring closure, yield after HPLC under setting [3] was 5%. Where the note is “the molecule shown is the open-chain precursor, other bond, 49-membered ring, CH(OMe)3/Et3N, then 6/LiBr/Et3N, DMF, THF, resin, 25.0 °C, with chain assembly”, “H-Gly-MePhe-Glu-Glu-Lys-Asp-Ile-Asn-Asn-Asn-Val-Lys-Lys(4-formylbenzoyl)-Thr-resin?” showed a ring closure, yield after HPLC of 2%. In the case of “H-Gly-MePhe-Gly-Leu-Gly-Phe-Lys(4-formylbenzoyl)-Phe-resin?”, the ring closure, yield after HPLC stood at 5% under setting [4] and 4% (the molecule shown is the open-chain precursor, other bond, 31-membered ring, CH(OMe)3/Et3N, then 11/LiBr/Et3N, DMF, THF, resin, 25.0 °C, with chain assembly).

Turning to “H-Gly-MePhe-Ile-Asn-Asn-Asn-Lys(4-formylbenzoyl)-Gly-resin?”, the ring closure, yield after HPLC under setting [5] came to 3%.

As to “H-Gly-MePhe-Leu-Lys-Pro-Ile-Lys(4-formylbenzoyl)-Gly-resin?”, the ring closure, yield after HPLC by setting is: under setting [5], 8%; under setting [4], 5%; (the molecule shown is the open-chain precursor, other bond, 31-membered ring, CH(OMe)3/Et3N, then 13/LiBr/Et3N, DMF, THF, resin, 25.0 °C, with chain assembly) 4%.

Consider “H-Gly-Phe-Asp-Ile-Asn-Asn-Asn-Lys(4-formylbenzoyl)-Gly-resin?”, for which the ring closure, yield after HPLC under setting [1] turned out to be 2%.

Turning to “H-Gly-Pro-Asp-Ile-Asn-Asn-Asn-Lys(4-formylbenzoyl)-Gly-resin?”, under setting [1], the ring closure, yield after HPLC is 3%. The substance “H-Gly-dMePhe-Asp-Ile-Asn-Asn-Asn-Lys(4-formylbenzoyl)-Gly-resin” registered a ring closure, yield after HPLC under setting [1] of 5%. In turn, Y[CRFFNAFC]Y gave a ring closure, yield after HPLC (disulfide bond, 26-membered ring, DMSO/AcOH, DMSO/AcOH/H2O, 1.56 mM, 25.0 °C, 3 steps) of 25%. Take Y[CRffNAFC]Y: the ring closure, yield after HPLC (disulfide bond, 26-membered ring, DMSO/AcOH, DMSO/AcOH/H2O, 1.55 mM, 25.0 °C, 3 steps) came to 17%.

The substance “[4-F-Ph-pyrrolidinyl-spirooxindole-NMeFDINNNK]G” showed a ring closure, yield after HPLC (other bond, Fmoc removal (RP-03), imine cyclization/1,3-dipolar cycloaddition, (E)-4-fluorobenzylidene-indolin-2-one, Cu/BINAP (RP-04), resin, 4 steps) of 6%. Where the note is “other bond, Fmoc removal (RP-03), imine cyclization/1,3-dipolar cycloaddition, (E)-4-methoxybenzylidene-indolin-2-one (RP-04), resin, 4 steps”, “[4-OMePh-pyrrolidinyl-spirooxindole-NMeFDINNNK]G” displayed a ring closure, yield after HPLC of 3%.

On to “[N-3,4,5-OMePh-fused-di-pyrrolidine-NMeFRffNK]G”, for which, where the note is “other bond, Fmoc removal (RP-03), imine cyclization/N-(3,4,5-trimethoxyphenyl)maleimide 1,3-dipolar cycloaddition (RP-04), resin, 3 steps”, the ring closure, yield after HPLC is 2%. The substance “[N-4-OMePh-fused-di-pyrrolidine-NMeFDINNNK]G” displayed a ring closure, yield after HPLC (other bond, Fmoc removal (RP-03), imine cyclization/1,3-dipolar cycloaddition, N-(4-methoxyphenyl)maleimide (RP-04), resin, 4 steps) of 20%. Under “other bond, Fmoc removal (RP-03), imine cyclization/maleimide 8 1,3-dipolar cycloaddition (RP-04), resin, 3 steps”, “[N-4-OMePh-fused-di-pyrrolidine-NMeFRffNK]G” returned a ring closure, yield after HPLC of 4%.

As for [N-Me-fused-di-pyrrolidine-FDINNNK]G, the ring closure, yield after HPLC under setting [6] came to 2%.

As for [N-Me-fused-di-pyrrolidine-NMeFAHASNK]G, the ring closure, yield after HPLC under setting [7] came out at 3%.

“[N-Me-fused-di-pyrrolidine-NMeFALFPGFK]G, A1” registered a ring closure, yield after HPLC (other bond, 37-membered ring, CH(OMe)3/Et3N, then 6/LiBr/Et3N, DMF, THF, resin, 25.0 °C, 4 steps) of 22%. In the case of “[N-Me-fused-di-pyrrolidine-NMeFDINNNDab]G”, the ring closure, yield after HPLC (other bond, 32-membered ring, imine formation, then N-methylmaleimide cycloaddition (RP-04), resin, with chain assembly) was found to be 3%. As for “[N-Me-fused-di-pyrrolidine-NMeFDINNNDap]G”, the ring closure, yield after HPLC (other bond, 31-membered ring, imine formation, then N-methylmaleimide cycloaddition (RP-04), resin, with chain assembly) was 4%. On to [N-Me-fused-di-pyrrolidine-NMeFDINNNK]G, for which the ring closure, yield after HPLC under setting [8] was determined as 24%. For “[N-Me-fused-di-pyrrolidine-NMeFDINNNOrn]G”, the ring closure, yield after HPLC (other bond, 33-membered ring, imine formation, then N-methylmaleimide cycloaddition (RP-04), resin, with chain assembly) was 13%. In turn, “[N-Me-fused-di-pyrrolidine-NMeFDINNNVK]G” yielded a ring closure, yield after HPLC under setting [6] of 5%.

“[N-Me-fused-di-pyrrolidine-NMeFEEKDINNNVKK]T” yielded a ring closure, yield after HPLC under setting [6] of 2%. For “[N-Me-fused-di-pyrrolidine-NMeFFLK]G, P1”, the ring closure, yield after HPLC (other bond, imine formation, then N-methylmaleimide cycloaddition (RP-04), resin, with chain assembly) came out at 4%. Turning to [N-Me-fused-di-pyrrolidine-NMeFGLGFK]F, under setting [7], the ring closure, yield after HPLC stood at 5%. With [N-Me-fused-di-pyrrolidine-NMeFINNNK]G, the ring closure, yield after HPLC under setting [6] was determined as 3%. Under setting [7], [N-Me-fused-di-pyrrolidine-NMeFNNNK]G yielded a ring closure, yield after HPLC of 21%. Under setting [9], [N-Me-fused-di-pyrrolidine-NMeFRANK]G displayed a ring closure, yield after HPLC of 14%.

Consider [N-Me-fused-di-pyrrolidine-NMeFRFFNAK]Y, for which the ring closure, yield after HPLC under setting [7] turned out to be 3%. Regarding “[N-Me-fused-di-pyrrolidine-NMeFRffK]Y, O1”, the ring closure, yield after HPLC (other bond, imine formation, then N-methylmaleimide cycloaddition (RP-04), resin, 4 steps) was 6% and 7%. As for “[N-Me-fused-di-pyrrolidine-NMeFRffNAFK]G”, under setting [8], the ring closure, yield after HPLC stood at 4%. As for [N-Me-fused-di-pyrrolidine-NMeFRffNAK]Y, the ring closure, yield after HPLC under setting [7] is 2%. For the substance [N-Me-fused-di-pyrrolidine-NMeFRffNK]G, under setting [9], the ring closure, yield after HPLC turned out to be 3%. In turn, [N-Me-fused-di-pyrrolidine-NMeGDINNNK]G registered a ring closure, yield after HPLC (other bond, 34-membered ring, imine formation, then N-methylmaleimide cycloaddition (RP-04), resin, with chain assembly) of 8%. For the substance [N-Me-fused-di-pyrrolidine-NMeLDINNNK]G, the ring closure, yield after HPLC under setting [10] is 3% and 20%. [N-Me-fused-di-pyrrolidine-NMeVDINNNK]G: the ring closure, yield after HPLC under setting [10] was 27% and 12%.
